From patent publication US20250205204A1, “Transcription Factor Brn2 Inhibitory Compounds for Use as Therapeutics” (The University of British Columbia, priority 2021, published 2025)
Where two headings read alike, the source gives them in different places.

Legend:
42D^ENZR cells = experiment: Cell proliferation, BRN2 expressing 42D cells (crystal violet); type: cell-based; settings: for Growth Specificity: 42D (express BRN2) versus 16D (no BRN2) cells, result in words
Procedure: Step 3: Cell Proliferation
Plate 42DE^NZR (˜7000 cells per well) and 16D^CRPC (˜5000 cells per well) cells in 96 well plate with a volume of 100 μL per well. • 2. Next day 1 mL aliquots of media are combined with 3× the desired concentration of compounds. The aliquots are vortexed and 50 μL of each 3× concentration is added to the 100 μL of media in each well to give the ix desired concentration.
The following are the desired concentrations:
Approximately 72 hours later, 17 μL of 10% Glutaraldehyde is added to each well and plates are placed on a shaker for 20-30 minutes. • 4. Media is washed off the fixed cells by slow submersion in a container of water. Then the water is removed by tapping the plate upside down. • 5. 75 μL of Crystal Violet™ solution is added into the 96 well plates and placed on a shaker for ˜30 minutes. • 6. Media is washed off the fixed cells by repeated slow submersion in a container of water and the plates are allowed to dry over-night. • 7. Next day, 75 μL of Sorensen Solution is accurately pipetted into each well. The plates placed on a shaker for ˜30 minutes. • 8. Absorbance is measured in the plate at 590 nm.
There is a distinction in TABLES 1 and 2 difference between “Active” and “Specific” or “Specificity”.

BRN2 = biological target: T1, BRN2 (Homo sapiens, UniProt P20265); experiment: BLI binding; settings: result in words
T1 sequence (P20265 1-443): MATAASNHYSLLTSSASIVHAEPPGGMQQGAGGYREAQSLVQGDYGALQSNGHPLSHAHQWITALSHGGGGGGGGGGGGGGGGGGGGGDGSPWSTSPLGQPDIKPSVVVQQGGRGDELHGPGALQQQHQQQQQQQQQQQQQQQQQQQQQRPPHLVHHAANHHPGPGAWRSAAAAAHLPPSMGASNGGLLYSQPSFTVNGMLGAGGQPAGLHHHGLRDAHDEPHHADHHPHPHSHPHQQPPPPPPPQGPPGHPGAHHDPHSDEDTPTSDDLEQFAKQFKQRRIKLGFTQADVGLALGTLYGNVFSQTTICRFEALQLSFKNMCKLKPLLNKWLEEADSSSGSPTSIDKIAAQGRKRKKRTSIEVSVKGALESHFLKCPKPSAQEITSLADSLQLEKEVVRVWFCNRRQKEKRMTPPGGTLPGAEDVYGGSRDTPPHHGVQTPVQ

[1] = Metabolic stability in liver microsomes (MLM); type: in vitro ADME, mice; settings: 0.25 mg/mL protein; for half-life at 1 μM: mouse, liver microsomes, pH 7.4, 1 μM compound, read-out: T1/2 in mins (MLM); for Met Stab % (60 mins) MLM: percent remaining at 60 min, 1 μM compound, 1 mM NADPH
Procedure: Preparation of Potassium Phosphate Buffer, 50 mM (pH 7.4)
Potassium phosphate buffer (Kphos) was prepared by adding 0.647 g potassium phosphate monobasic (KH2PO4) and 3.527 g potassium phosphate dibasic (KH2PO4) to 400 mL of Milli-Q™ water. pH of the buffer was adjusted to 7.4 and volume was made up to 500 mL.
Preparation of Microsomes
Stock solutions of BRN2 inhibitors were prepared in DMSO at a concentration of 1 mM
Preparation of NADPH Solution
• Total Incubation volume: 100 μL • Compound concentration: 1 μM • Protein Concentration: 0.25 mg/mL • NADPH: 1 mM • Final DMSO contain: 0.1% • Number of replicates: 2 • Time points: 0, 5, 15, 30 and 60 min
From the above mix, 70 μL was added to individual wells of 96 well reaction plates and pre-incubated in a 37° C. water bath for 5 min. […] Reactions without NADPH and buffer controls (minus NADPH) at 0 min and 60 min were also incubated to rule out non-NADPH metabolism or chemical instability in the incubation buffer. All reactions were terminated using 100 μL of ice-cold acetonitrile containing internal standard at 0, 5, 15, 30 and 60 min.
Samples were monitored for parent compounds disappearance in MRM mode using LC-MS/MS.
The percent remaining of test compounds and positive control in each sample was determined by considering peak area ratio in the 0 minute sample as 100%. The Half-life of compounds in microsomes is calculated by formula: […]
In vitro intrinsic clearance (CL'int) (units in mL/min/kg) was calculated using the formula.
[formula] • For liver microsomes, scaling factor used was 45 mg microsomal protein per gm liver. • * Indicates liver weight (gm) which varies species wise. For mice the liver weights are 90 gm.

[2] = 42D cells, proliferation, about 72 hours, read-out: 42D IC50

Row | Structure (SMILES) | Growth Specificity (42D^ENZR cells; about 72 hours) | IC50 (42D^ENZR cells; read-out: IC50 (effective on both 42D and 16D cells)) [nM] | BLI binding (BRN2) | half-life at 1 μM [1] [min] | Met Stab % (60 mins) MLM [1] [%] | IC50 (42D^ENZR cells; [2]) [nM]
1 | O=C1C/C(=N/Nc2nc3ccccc3s2)c2ccccc21 [7-52] | effective on both 42D and 16D cells | 3000 to 7000 | Positive | 23 | 9 | 
2 | O=C1/C(=N\Nc2nc3ccccc3s2)Cc2cc(F)ccc21 [7-70, (Z)-2-(2-(benzo[d]thiazol-2-yl)hydrazineylidene)-5-fluoro-2,3-dihydro-1H-inden-1-one] | Specific to 42D |  | Positive binding | 50 | 38 | ~5000
3 | O=C1/C(=N\Nc2nc3ccccc3s2)Cc2cc(Cl)ccc21 [7-71, (Z)-2-(2-(benzo[d]thiazol-2-yl)hydrazineylidene)-5-chloro-2,3-dihydro-1H-inden-1-one] | Specific to 42D but weak |  | Positive binding | 47 | 35 | ~15000
4 | O=C1/C(=N\Nc2nc3ccccc3s2)Cc2ccc(F)cc21 [7-81, (Z)-2-(2-(benzo[d]thiazol-2-yl)hydrazineylidene)-6-fluoro-2,3-dihydro-1H-inden-1-one] | Specific to 42D |  | Positive binding | 22 | 26 | 
5 | O=C1/C(=N\Nc2nc3ccccc3s2)Oc2ccccc21 [7-90] | Not specific |  | no binding | 13 | 4 | 
6 | O=C1/C(=N\Nc2nc3ccccc3s2)Cc2c1cccc2C(F)(F)F [7-91] | Specific to 42D |  | Positive binding | > 60 | 67 | ~2000
7 | N#Cc1ccc2c(c1)C(=O)/C(=N\Nc1nc3ccccc3s1)C2 [7-92] | Specific but weak |  | Positive binding | 48 | 41 | ~15000
8 | N#Cc1ccc2c(c1)C/C(=N/Nc1nc3ccccc3s1)C2=O [7-93] | Specific but weak |  | no binding | 44 | 39 | ~15000
9 | O=C1/C(=N\Nc2nc3ccccc3s2)Cc2cc(Br)ccc21 [7-94] | Specific to 42D |  | Positive binding | > 60 | 50 | ~2000
10 | O=C1/C(=N\Nc2nc3ccccc3s2)Nc2ccccc21 [7-95] | Specific but weak |  | Positive binding | > 60 | 69 | ~15000
11 | Cc1ccc2c(c1)C/C(=N/Nc1nc3ccccc3s1)C2=O [7-96] | Specific but weak |  | inconclusive, needs to be repeated | 31 | 22 | ~15000
12 | O=C1/C(=N\Nc2nc3ccccc3s2)Cc2cc(F)c(F)cc21 [7-97] | Specific to 42D |  | Positive binding | > 60 | 69 | ~2000
13 | O=C1/C(=N\Nc2nc3ccccc3s2)Cc2cc(-c3ccccc3)ccc21 [7-98] | Specific to 42D |  |  | 33 | 26 | ~2000
14 | COc1ccc2c(c1)C/C(=N/Nc1nc3ccccc3s1)C2=O [7-99] | Potent but effective on both 42D and 16D cells |  |  | 15 | 6 | 
15 | O=C1/C(=N\Nc2nc3ccccc3s2)Cc2cc(F)c(Cl)cc21 [7-100] | Specific to 42D |  | Positive binding | 38 | 30 | ~2000
16 | O=C1/C(=N\Nc2nc3ccccc3s2)Cc2c1ccc(F)c2F [7-101] | Specific to 42D cells |  | Positive binding | > 60 | 67 | 1000 to 2500
17 | O=C1/C(=N\Nc2nc3ccccc3s2)Cc2cc(F)cc(F)c21 [7-102] | Specific to 42D cells |  | Positive binding but not strong | 56 | 46 | ~2500
18 | O=C1/C(=N\Nc2nc3ccccc3s2)Cc2cc(N3CCOCC3)ccc21 [7-103] | Not specific |  | No binding | 44 | 42 | 
19 | CCc1ccc2c(c1)C/C(=N/Nc1nc3ccccc3s1)C2=O [7-104] | Not specific |  | No binding | 25 | 17 | 
20 | O=C1/C(=N\Nc2nc3ccccc3s2)Cc2cc(C3CC3)ccc21 [7-105] | Not specific |  | No binding | > 60 | 75 | 
21 | O=C1/C(=N\Nc2nc3ccccc3s2)Cc2cccc(C(F)(F)F)c21 [7-106] | Specific to 42D cells |  | Positive binding | 46 | 38 | ~2000
22 | O=C1/C(=N\Nc2nc3ccccc3s2)Cc2ccc(C(F)(F)F)cc21 [7-107] | Low potency |  |  | > 60 | 82 | 
23 | CCN(CC)c1ccc2c(c1)C(=O)/C(=N\Nc1nc3ccccc3s1)C2 [7-109] | Not specific |  | Positive binding | 13 | 3 | 
24 | COC(=O)c1ccc2c(c1)C(=O)/C(=N\Nc1nc3ccccc3s1)C2 [7-110] | No activity |  | No binding | 32 | 25 | 
25 | COC(=O)c1ccc2nc(N/N=C3/Cc4ccccc4C3=O)sc2c1 [7-111] | No activity |  | No binding | 15 | 6 | 
26 | O=C1/C(=N\Nc2nc3ccccc3s2)Cc2cc(N3CCCCC3)ccc21 [7-112] | Not specific |  | No binding | 32 | 26 | 
27 | O=C1/C(=N\Nc2nc3ccccc3s2)Cc2cc(N3CCC3)ccc21 [7-113] | precipitates |  | No binding | 15 | 6 | 
28 | CNC(=O)c1ccc2c(c1)C/C(=N/Nc1nc3ccccc3s1)C2=O [7-117] | Not specific |  | No binding |  |  | 
29 | CNC(=O)c1ccc2c(c1)C(=O)/C(=N\Nc1nc3ccccc3s1)C2 [7-118] | very low activity |  | No binding |  |  | 
